Measured values: US12343334B2, “Compositions and methods for treating severe constipation” (Serleva, Inc., priority 2018, dated 2025)

Tested on: Male C57BL mice with loperamide-induced constipation
Assay: Mouse model of loperamide-induced constipation
Format: in vivo
Conditions: Product 1 30 mg/kg oral gavage, 30 min after loperamide 10 mg/kg, final study day, compared to Loperamide/Vehicle
Experimental: Mouse Model of Loperamide-Induced Constipation
Male C57BL mice (6 to 8 weeks, 25-30 grams) were placed on high-fat diet (45% fat) and allowed to acclimate (singly housed on a 12 hr light/dark cycle) for 6 days. Loperamide was administered by oral gavage at 10 mg/kg (10% DMSO/90% of 20% SBE-β-CD in saline) for 3 consecutive days prior to study initiation.
Daily loperamide dosing was continued throughout the entire study. On the 4, day of loperamide administration, Product 1 (30 mg/kg in 10% DMSO/90% of 20% SBE-β-CD in saline) was administered 30 minutes later by oral gavage. Sequential treatment of loperamide and Product 1 (30 minutes post-loperamide dose) was continued for 2 additional days. On the final day of the study, a fourth group of animals received a single subcutaneous administration of naloxone (1 mg/kg) as a positive control.
On the final study day, the number of fecal pellets and pellet weights for each animal were recorded hourly for the 6 hours following dosing. Fecal pellet output was then recorded every other hour for the period of 6-12 hours post-dosing. Additionally, total fecal pellet count for the period of 12 to 24 hours was measured. Fecal pellets were dried for 24 hours and dry weight recorded.
Prism software (GraphPad Prism, San Diego, CA) was employed for graphs and curve fitting. Data was analyzed using a two-way ANOVA with post-hoc LSD test.

O=C(O)CC1CCC(c2ccc(-c3ccc(Nc4ccc(C(F)(F)F)nc4)cn3)cc2)CC1 (stereo not drawn) [Product 1]
significant increase: wet weights of fecal pellets (FPWW) (1-4 hours after administration, FIG. 2) | dry weights of fecal pellets (FPDW) (1-4 hours after administration, FIG. 3) | fecal pellet output (FPCO) (first 1-4 hours after administration, FIG. 1)
